According to patent EP3409278B1, “HETEROCYCLIC PROTEIN KINASE INHIBITORS” (Tolero Pharmaceuticals, Inc., priority 2011, dated 2013):

Columns and labels:
22RV1/PIM-1 = 22RV1/PIM-1 over-expression tumor xenograft; assay type: in vivo, mouse
Text: (§1) Male and female Nu/Nu mice were purchased from Harlan Sprague Dawley (Indianapolis, IN). Female Nu/Nu mice were used for all xenograft evaluations with the exception of the PC-3 xenografts where male Nu/Nu mice were used. Cell lines were expanded In vitro in complete media, and if adherent were harvested by trypsin-EDTA, centrifuged and resuspended in PBS 1:1 with Matrigel (BD Bioscienes). Cells were inoculated subcutaneously in the right hind flank of mice. When tumors reached 100-200 mm^3 by caliper measurement, mice were randomized and dosing of SGI-9481 or vehicle control began and continued every day for 5 days (QDx5) with 2 days off for 18-21 days. Tumor volumes and body weights were determined twice a week, and tumor weights were measured at the completion of the translational xenograft studies.
(§2) . The prostate cancer cell line 22RV1 engineered to over-express PIM-1 as previously described (Mumenthaler, et al, Mol. Cancer Ther., 2009, 8(10)2882-93) was evaluated in vivo. A second model engineered to over-express PIM-2 was established using the NIH-3T3 mouse fibroblast cell line. […]. […].

NIH-3T3/PIM-2 = NIH-3T3/PIM-2 over-expression tumor xenograft; assay type: in vivo, mouse
Text: as §1, §2

UM-UC-3 cells = assay: Colony formation assay, UM-UC-3; assay type: cell-based
Experimental: (§3) For shRNA growth experiments, 500 UM-UC-3 cells were seeded in a 12-well plate 48 hours post-transduction and cultured for 8-10 days at 37°C in 5% CO2. Cells were fixed with 4% paraformaldehyde in PBS, washed twice with PBS, and stained with a crystal violet solution (1% crystal violet, 10% ethanol in water). Stained cells were washed thrice with water, and imaged after drying on a GelCount colony counter (Oxford Optronix Ltd., Oxford, UK). Total staining intensity per well was determined by lysis of cells with 200 µl of Triton X-100 lysis buffer (1% Triton X-100, 50 mM Tris-HCl pH 7.4, 150 mM NaCl, 1 mM EDTA). Lysates (100 µl) from each well were transferred to a clear 96-well plate and absorbance at 560 nm was determined on an Envision microplate reader. IC50 values were determined using GraphPad Prism software. For compound treated PC-3 and UM-UC-3, cells were seeded and stained as above, but were incubated with various concentrations of test compound or DMSO one day after seeding.
(§4) Translational models were also explored for PIM dependency using shRNA knockdown. The UM-UC-3 urinary epithelial bladder carcinoma cell line was used to verify and validate dependency on PIM-1 for growth.

PC-3 cells = assay: Colony formation assay, PC-3; assay type: cell-based
Experimental: as §3, §4

UM-UC-3 = assay: Established UM-UC-3 mouse xenograft tumors; assay type: in vivo
Text: as §1

PC-3 = assay: Established PC-3 mouse xenograft tumors; assay type: in vivo
Text: as §1

[1] = test system: phosphatidyl inositol-3-kinase (PI3K) family; assay: Selectivity study; assay type: biochemical; conditions: data not given
[2] = test system: ML-2 cells (wild-type FLT3); assay: ML-2 mouse xenograft study; assay type: in vivo; conditions: ML-2 xenografts (wild-type FLT3)
Text: as §1

MV-4-11 (FLT3-ITD) = assay: MV-4-11 mouse xenograft study; assay type: in vivo; conditions: MV-4-11 xenografts (FLT3-ITD)
Text: as §1

[3] = 125 mg/kg, less than with 200 mg/kg

Structure (SMILES): CC(C)(O)[C@H]1CC[C@H](Nc2ccc3ncc(-c4cccc(C(F)(F)F)c4)n3n2)CC1 [8-31]
- subcutaneous tumor growth (22RV1/PIM-1; 22RV1/PIM-1 + compound vs. 22RV1/PIM-1 + vehicle): significantly reduced
- body weight (22RV1/PIM-1; 22RV1/PIM-1 xenograft mice): No significant changes in body weight
- subcutaneous tumor growth (NIH-3T3/PIM-2; NIH-3T3/PIM-2 + compound vs. NIH-3T3/PIM-2 + vehicle): significantly inhibited
- body weight (NIH-3T3/PIM-2; NIH-3T3/PIM-2 xenograft mice): No significant changes in body weight
- colony growth (UM-UC-3 cells): reduced colony growth
- colony growth (PC-3 cells): reduced colony growth
- tumor growth inhibition (UM-UC-3; [3]): significant tumor growth inhibition
- body weight or gross adverse toxicity (UM-UC-3; oral dosing of 200 mg/kg): no significant changes in body weight or gross adverse toxicity
- tumor growth measured by volume (caliper) and by final tumor weight (UM-UC-3; oral dosing of 200 mg/kg): significantly reduced
- tumor growth inhibition (PC-3; [3]): significant tumor growth inhibition
- plasma and tumor tissue levels (PC-3; PC-3 tumor-burdened mice, 200 mg/kg): above the in vitro proliferation EC50
- body weight or gross adverse toxicity (PC-3; oral dosing of 200 mg/kg): no significant changes in body weight or gross adverse toxicity
- tumor growth measured by volume (caliper) and by final tumor weight (PC-3; oral dosing of 200 mg/kg): significantly reduced
- inhibitory activity against multiple members of the PI3K family [1]: inhibitory activity
- tumor growth inhibition [2]: significant tumor growth inhibition
- effect on established xenografts (MV-4-11 (FLT3-ITD)): induced regressions
